Columns and labels:
[1] = system: barnyardgrass; assay: Test B pre-/postemergence herbicide test; type: in vivo, Echinochloa crus-galli
Procedure, shortened: (§1)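 Seeds were planted and treated preemergence with compounds formulated in a non-phytotoxic solvent mixture containing surfactant, while plants at the 1- to 4-leaf stage (2 to 18 cm) received postemergence sprays. Flooded paddy plants were grown to the 2-leaf stage. After 13 to 15 days in a greenhouse, injury was visually rated 0–100 against untreated controls.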

[2] = system: Surinam grass; assay: Test B pre-/postemergence herbicide test; type: in vivo, Urochloa decumbens
Procedure, shortened: as §1

[3] = system: cocklebur; assay: Test B pre-/postemergence herbicide test; type: in vivo, Xanthium strumarium
Procedure, shortened: as §1

[4] = system: corn; assay: Test B pre-/postemergence herbicide test; type: in vivo, Zea mays
Procedure, shortened: as §1

[5] = system: large crabgrass; assay: Test B pre-/postemergence herbicide test; type: in vivo, Digitaria sanguinalis
Procedure, shortened: as §1

[6] = system: giant foxtail; assay: Test B pre-/postemergence herbicide test; type: in vivo, Setaria faberi
Procedure, shortened: as §1

[7] = system: lambsquarters; assay: Test B pre-/postemergence herbicide test; type: in vivo, Chenopodium album
Procedure, shortened: as §1

[8] = system: morningglory; assay: Test B pre-/postemergence herbicide test; type: in vivo, Ipomoea coccinea
Procedure, shortened: as §1

[9] = system: pigweed; assay: Test B pre-/postemergence herbicide test; type: in vivo, Amaranthus retroflexus
Procedure, shortened: as §1

[10] = system: velvetleaf; assay: Test B pre-/postemergence herbicide test; type: in vivo, Abutilon theophrasti
Procedure, shortened: as §1

[11] = system: wheat; assay: Test B postemergence herbicide test; type: in vivo, Triticum aestivum; set-up: key to Wheat plant response rating: 0 = no effect, 100 = complete control; conditions: scale 0 (no effect) to 100 (complete control); for Plant response rating, Wheat: Postemergence, visual rating after 13 to 15 days; for Wheat plant response rating: postemergence, visual rating
Procedure, shortened: (§2)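 Each value is a visual 0–100 response rating taken against controls 13 to 15 days after treatment in the greenhouse. Plants received formulated chemical postemergence at the 1- to 4-leaf stage or, in flooded paddy, at the 2-leaf stage.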

[12] = system: wild oat; assay: Test B postemergence herbicide test; type: in vivo, Avena fatua; conditions: scale 0 (no effect) to 100 (complete control); for Plant response rating, Oat, Wild: Postemergence, visual rating after 13 to 15 days; for Oat, Wild plant response rating: postemergence, visual rating
Procedure, shortened: as §2

[13] = system: rice; assay: Test B flooded paddy test; type: in vivo, Oryza sativa; conditions: scale 0 to 100 (0 no effect, 100 complete control); for Rice plant response rating: 1000 g ai/ha, visual rating, 13 to 15 days
Procedure, shortened: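 Visual ratings, 0 (no effect) to 100 (complete control), made versus controls after 13–15 d greenhouse. Paddy plants treated at 2-leaf stage; postemergence plants at 1- to 4-leaf stage, 2–18 cm tall.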

[14] = system: small flower umbrella sedge; assay: Test B flooded paddy test; type: in vivo, Cyperus difformis; conditions: scale 0 to 100 (0 no effect, 100 complete control); for Sedge, Umbrella plant response rating: 1000 g ai/ha, visual rating, 13 to 15 days
Procedure, shortened: (§3)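 Postemergence plants were sprayed with formulated test chemicals at 2 to 18 cm height (1- to 4-leaf stage); paddy species were grown to the 2-leaf stage. After 13 to 15 days in a greenhouse, injury was rated visually against untreated controls on a 0–100 scale (0 = no effect, 100 = complete control).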

[15] = system: barnyardgrass; assay: Test B flooded paddy test; type: in vivo, Echinochloa crus-galli; conditions: scale 0 to 100 (0 no effect, 100 complete control); for Barnyardgrass plant response rating: 1000 g ai/ha, visual rating, 13 to 15 days
Procedure, shortened: as §3

[16] = Postemergence, 500 g ai/ha, visual rating after 13 to 15 days, scale 0 (no effect) to 100 (complete control)
[17] = Preemergence, 500 g ai/ha, scale 0 to 100
[18] = postemergence, 125 g ai/ha, visual rating, scale 0 (no effect) to 100 (complete control)
[19] = preemergence, 125 g ai/ha, 0 to 100 scale, 0 is no effect, 100 is complete control
[20] = 500 g ai/ha, visual rating 0-100, 0 no effect, 100 complete control, preemergence
[21] = postemergence, 500 g ai/ha, visual rating, scale 0 (no effect) to 100 (complete control)

SMILES: CCNC(=O)c1cc(NC(=O)c2cc(C(C)(C)C)nn2CC)ccc1F [Compound 58]
- Plant response rating, Barnyardgrass [1, 16]: 60
- Barnyardgrass plant response rating [1, 17]: 100
- Barnyardgrass plant response rating [1, 18]: 30
- Plant response rating, Barnyardgrass [1, 19]: 90
- Plant response rating, Surinam Grass [2, 16]: 30
- Surinam Grass plant response rating [2, 17]: 60
- Surinam Grass plant response rating [2, 18]: 10
- Plant response rating, Surinam Grass [2, 19]: 30
- Plant response rating, Cocklebur [3, 16]: 100
- Cocklebur plant response rating [3, 17]: 100
- Cocklebur plant response rating [3, 18]: 80
- Plant response rating, Cocklebur [3, 19]: 0
- Plant response rating, Corn [4, 16]: 20
- Corn plant response rating [4, 17]: 30
- Corn plant response rating [4, 18]: 10
- Plant response rating, Corn [4, 19]: 20
- Plant response rating, Crabgrass, Large [5, 16]: 30
- Crabgrass, Large plant response rating [5, 17]: 100
- Crabgrass, Large plant response rating [5, 18]: 20
- Plant response rating, Crabgrass, Large [5, 19]: 100
- Plant response rating, Foxtail, Giant [6, 16]: 20
- Foxtail, Giant plant response rating [6, 17]: 100
- Foxtail, Giant plant response rating [6, 18]: 20
- Plant response rating, Foxtail, Giant [6, 19]: 100
- Plant response rating, Lambsquarters [7, 16]: 90
- Lambsquarters plant response rating [7, 17]: 100
- Lambsquarters plant response rating [7, 18]: 90
- Plant response rating, Lambsquarters [7, 19]: 100
- Plant response rating, Morningglory [8, 16]: 30
- Morningglory plant response rating [8, 17]: 30
- Morningglory plant response rating [8, 18]: 20
- Plant response rating, Pigweed [9, 16]: 90
- Pigweed plant response rating [9, 17]: 100
- Pigweed plant response rating [9, 18]: 60
- Plant response rating, Pigweed [9, 19]: 100
- Plant response rating, Velvetleaf [10, 16]: 70
- Velvetleaf plant response rating [10, 17]: 100
- Velvetleaf plant response rating [10, 18]: 50
- Plant response rating, Velvetleaf [10, 19]: 60
- Plant response rating, Wheat ([11]; 500 g ai/ha): 20
- Wheat plant response rating ([11]; 125 g ai/ha): 0
- Plant response rating, Oat, Wild ([12]; 500 g ai/ha): 30
- Oat, Wild plant response rating ([12]; 125 g ai/ha): 20
- Rice plant response rating [13]: 60
- Sedge, Umbrella plant response rating [14]: 80
- Barnyardgrass plant response rating [15]: 80

SMILES: C=Cn1nc(C(C)(C)C)cc1C(=O)Nc1cccc(C(C)=NO)c1 [Compound 114]
- Plant response rating, Barnyardgrass [1, 20]: 80
- Plant response rating, Barnyardgrass [1, 16]: 30
- Barnyardgrass plant response rating [1, 18]: 20
- Plant response rating, Barnyardgrass [1, 19]: 50
- Plant response rating, Surinam Grass [2, 20]: 30
- Plant response rating, Surinam Grass [2, 16]: 20
- Surinam Grass plant response rating [2, 18]: 10
- Plant response rating, Surinam Grass [2, 19]: 20
- Plant response rating, Cocklebur [3, 20]: 10
- Plant response rating, Cocklebur [3, 16]: 90
- Cocklebur plant response rating [3, 18]: 80
- Plant response rating, Cocklebur [3, 19]: 10
- Plant response rating, Corn [4, 20]: 10
- Plant response rating, Corn [4, 19]: 0
- Plant response rating, Crabgrass, Large [5, 20]: 100
- Plant response rating, Crabgrass, Large [5, 16]: 40
- Crabgrass, Large plant response rating [5, 18]: 30
- Plant response rating, Crabgrass, Large [5, 19]: 90
- Plant response rating, Foxtail, Giant [6, 20]: 90
- Plant response rating, Foxtail, Giant [6, 16]: 30
- Foxtail, Giant plant response rating [6, 18]: 30
- Plant response rating, Foxtail, Giant [6, 19]: 50
- Plant response rating, Lambsquarters [7, 20]: 100
- Plant response rating, Lambsquarters [7, 16]: 90
- Lambsquarters plant response rating [7, 18]: 80
- Plant response rating, Lambsquarters [7, 19]: 100
- Plant response rating, Morningglory [8, 19]: 10
- Plant response rating, Pigweed [9, 20]: 100
- Plant response rating, Pigweed [9, 16]: 100
- Pigweed plant response rating [9, 18]: 90
- Plant response rating, Pigweed [9, 19]: 80
- Plant response rating, Velvetleaf [10, 20]: 60
- Plant response rating, Velvetleaf [10, 16]: 60
- Velvetleaf plant response rating [10, 18]: 50
- Plant response rating, Velvetleaf [10, 19]: 40
- Plant response rating, Wheat ([11]; 500 g ai/ha): 20
- Wheat plant response rating ([11]; 125 g ai/ha): 20
- Plant response rating, Oat, Wild ([12]; 500 g ai/ha): 10
- Oat, Wild plant response rating ([12]; 125 g ai/ha): 10
- Rice plant response rating [13]: 50
- Sedge, Umbrella plant response rating [14]: 90
- Barnyardgrass plant response rating [15]: 70

SMILES: C=Cn1nc(C(C)(C)C)cc1C(=O)Nc1cccc(C(C)=O)c1 [Compound 127]
- Plant response rating, Barnyardgrass [1, 20]: 70
- Barnyardgrass plant response rating [1, 18]: 10
- Barnyardgrass plant response rating [1, 21]: 20
- Plant response rating, Barnyardgrass [1, 19]: 20
- Plant response rating, Surinam Grass [2, 20]: 60
- Surinam Grass plant response rating [2, 18]: 10
- Surinam Grass plant response rating [2, 21]: 10
- Plant response rating, Surinam Grass [2, 19]: 50
- Plant response rating, Cocklebur [3, 20]: 20
- Cocklebur plant response rating [3, 18]: 10
- Cocklebur plant response rating [3, 21]: 80
- Plant response rating, Cocklebur [3, 19]: 10
- Plant response rating, Corn [4, 20]: 0
- Plant response rating, Corn [4, 19]: 0
- Plant response rating, Crabgrass, Large [5, 20]: 100
- Crabgrass, Large plant response rating [5, 18]: 20
- Crabgrass, Large plant response rating [5, 21]: 30
- Plant response rating, Crabgrass, Large [5, 19]: 90
- Plant response rating, Foxtail, Giant [6, 20]: 70
- Foxtail, Giant plant response rating [6, 18]: 20
- Foxtail, Giant plant response rating [6, 21]: 30
- Plant response rating, Foxtail, Giant [6, 19]: 30
- Plant response rating, Lambsquarters [7, 20]: 70
- Lambsquarters plant response rating [7, 18]: 70
- Lambsquarters plant response rating [7, 21]: 80
- Plant response rating, Lambsquarters [7, 19]: 0
- Plant response rating, Morningglory [8, 19]: 0
- Plant response rating, Pigweed [9, 20]: 70
- Pigweed plant response rating [9, 18]: 30
- Pigweed plant response rating [9, 21]: 60
- Plant response rating, Pigweed [9, 19]: 40
- Plant response rating, Velvetleaf [10, 20]: 20
- Velvetleaf plant response rating [10, 18]: 0
- Velvetleaf plant response rating [10, 21]: 10
- Plant response rating, Velvetleaf [10, 19]: 10
- Wheat plant response rating ([11]; 125 g ai/ha): 0
- Wheat plant response rating ([11]; 500 g ai/ha): 10
- Oat, Wild plant response rating ([12]; 125 g ai/ha): 10
- Oat, Wild plant response rating ([12]; 500 g ai/ha): 10
- Rice plant response rating [13]: 50
- Sedge, Umbrella plant response rating [14]: 100
- Barnyardgrass plant response rating [15]: 50

SMILES: CCNC(=O)c1cccc(NC(=O)c2nc(C(C)(C)C)nn2CC)c1 [Compound 446, 3-(1,1-dimethylethyl)-1-ethyl-N-[3-[(ethylamino)carbonyl]phenyl]-1H-1,2,4-triazole-5-carboxamide]
- plant injury at 125 g/ha ([13]; Oryza sativa, 336 h, 125 g ai/ha, read-out: Rice plant response rating): 80%
- plant injury at 500 g/ha ([13]; Oryza sativa, 336 h, 500 g ai/ha, read-out: Rice plant response rating): 90%
- pest or weed control at 125 g/ha ([14]; Cyperus difformis, 336 h, 125 g ai/ha, read-out: Sedge, Umbrella plant response rating): 90%
- pest or weed control at 500 g/ha ([14]; Cyperus difformis, 336 h, 500 g ai/ha, read-out: Sedge, Umbrella plant response rating): 90%
- pest or weed control at 125 g/ha ([15]; Echinochloa crus-galli, 336 h, 125 g ai/ha, read-out: Barnyardgrass plant response rating): 70%
- pest or weed control at 500 g/ha ([15]; Echinochloa crus-galli, 336 h, 500 g ai/ha, read-out: Barnyardgrass plant response rating): 90%

Reference: patent publication US20060069132A1, “Azolecarboxamide herbicides” (priority 2004, published 2006)
